Measurements reported in patent US20240353338A1 (priority 2023, published 2024).

System: early Delta variant of SARS-CoV-2
Type: cell-based

Nc1nnc(Sc2ncc([N+](=O)[O-])s2)s1 [Halicin] was tested, and the “antiviral effectiveness (virus growth by reverse transcriptase quantitative PCR)” value was “inhibition of virus growth”.
